In ChEMBL document CHEMBL4321825, “Discovery of a Series of 5-Azaquinazolines as Orally Efficacious IRAK4 Inhibitors Targeting MyD88L265P Mutant Diffuse Large B Cell Lymphoma” (J Med Chem, 2019):
Values after ≈ are worked out from the molar mass of the structure shown. Active and inactive are the calls of the source. No cut-off for these calls is given here.

Legend:
[1] = Lipophilicity, logD of the compound at pH 7.4 by shake-flask assay; type: physicochemical; conditions: buffer
[2] = Intrinsic clearance in human hepatocytes assessed per million cells; type: ADME, cell-based, Hepatocyte; conditions: read-out: CLH
[3] = Intrinsic clearance in rat hepatocytes assessed per million cells; type: ADME, cell-based, Hepatocyte; conditions: read-out: CLH
[4] = Intrinsic permeability in human Caco2 cells; type: ADME, cell-based; conditions: Caco-2
[5] = Clearance in rat at 0.5 mg/kg, iv; type: ADME, organism-based; conditions: in vivo
[6] = Oral bioavailability in rat at 1 mg/kg; type: ADME, organism-based; conditions: in vivo
[7] = target: T1, Cyclin-dependent kinase 9 (Homo sapiens, UniProt P50750); assay: Inhibition of CDK9 (unknown origin) at 1 uM relative to control
[8] = target: T2, Serine/threonine-protein kinase ULK2 (Homo sapiens) (UniProt Q8IYT8); assay: Inhibition of ULK2 (unknown origin) at 1 uM relative to control
T2 sequence (whole entry): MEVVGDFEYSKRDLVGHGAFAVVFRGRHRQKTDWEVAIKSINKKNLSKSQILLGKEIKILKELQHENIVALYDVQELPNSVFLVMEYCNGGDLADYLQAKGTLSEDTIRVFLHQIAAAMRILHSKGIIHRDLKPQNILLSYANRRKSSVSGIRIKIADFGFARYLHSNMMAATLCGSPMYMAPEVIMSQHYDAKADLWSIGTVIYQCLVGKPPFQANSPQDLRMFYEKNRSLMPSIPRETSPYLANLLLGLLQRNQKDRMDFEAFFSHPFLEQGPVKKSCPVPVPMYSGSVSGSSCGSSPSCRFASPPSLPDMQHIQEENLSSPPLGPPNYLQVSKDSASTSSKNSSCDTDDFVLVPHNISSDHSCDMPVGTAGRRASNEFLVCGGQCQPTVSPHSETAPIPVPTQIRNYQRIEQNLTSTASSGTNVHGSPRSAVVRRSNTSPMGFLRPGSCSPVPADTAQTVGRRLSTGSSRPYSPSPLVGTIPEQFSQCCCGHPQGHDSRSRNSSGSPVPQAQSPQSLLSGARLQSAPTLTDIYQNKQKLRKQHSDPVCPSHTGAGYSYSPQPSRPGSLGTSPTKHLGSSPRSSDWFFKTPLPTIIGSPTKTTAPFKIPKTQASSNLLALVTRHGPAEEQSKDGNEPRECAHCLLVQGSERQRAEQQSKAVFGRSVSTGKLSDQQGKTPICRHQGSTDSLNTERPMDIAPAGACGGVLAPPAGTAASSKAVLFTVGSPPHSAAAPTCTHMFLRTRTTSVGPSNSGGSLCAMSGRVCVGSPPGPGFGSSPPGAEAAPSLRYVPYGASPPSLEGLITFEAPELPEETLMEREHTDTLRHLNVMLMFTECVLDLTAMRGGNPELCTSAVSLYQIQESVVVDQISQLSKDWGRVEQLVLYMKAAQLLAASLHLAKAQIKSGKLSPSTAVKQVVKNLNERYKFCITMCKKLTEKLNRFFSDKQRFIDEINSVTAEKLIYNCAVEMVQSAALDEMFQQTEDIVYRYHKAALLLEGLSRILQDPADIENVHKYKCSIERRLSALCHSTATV

[9] = target: Casein kinase I isoform gamma-1 (Homo sapiens) (UniProt Q9HCP0); assay: Inhibition of CK1g1 (unknown origin) at 1 uM relative to control
[10] = target: Mitogen-activated protein kinase kinase kinase 9 (Homo sapiens) (UniProt P80192); assay: Inhibition of MLK1 (unknown origin) at 1 uM relative to control
[11] = target: Interleukin-1 receptor-associated kinase 1 (Homo sapiens, UniProt P51617); assay: Inhibition of IRAK1 (unknown origin)
[12] = target: Dual specificity protein kinase CLK1 (Homo sapiens, UniProt P49759); assay: Inhibition of human recombinant CLK1 expressed in Escherichia coli
[13] = target: Dual specificity protein kinase CLK2 (Homo sapiens, UniProt P49760); assay: Inhibition of human recombinant CLK2 expressed in Baculovirus system
[14] = target: Dual specificity protein kinase CLK3 (Homo sapiens, UniProt P49761); assay: Inhibition of human recombinant CLK3 expressed in Baculovirus system
[15] = target: Dual specificity protein kinase CLK4 (Homo sapiens, UniProt Q9HAZ1); assay: Inhibition of human recombinant CLK4 expressed in Baculovirus system
[16] = target: Cyclin-dependent kinase 7 (Homo sapiens, UniProt P50613); assay: Inhibition of CDK7 (unknown origin)
CDK8/Cyclin C = CDK8/Cyclin C (Homo sapiens, UniProt P49336); assay: Inhibition of human recombinant CDK8/cyclinC expressed in Baculovirus system
[17] = target: T1, Cyclin-dependent kinase 9; assay: Inhibition of CDK9 (unknown origin)
[18] = Unbound fraction in rat plasma at 37 degC by equilibrium dialysis; type: ADME, cell-free
[19] = Unbound fraction in mouse plasma at 37 degC by equilibrium dialysis; type: ADME, cell-free
[20] = Unbound fraction in human plasma at 37 degC by equilibrium dialysis; type: ADME, cell-free
[21] = Plasma clearance in Han Wistar rat at 1 mg/kg, iv; type: ADME, organism-based
[22] = Volume of distribution at steady state in Han Wistar rat at 1 mg/kg, iv; type: ADME, organism-based; conditions: in vivo, read-out: Vdss
[23] = Oral bioavailability in Han Wistar rat at 2 mg/kg; type: ADME, organism-based; conditions: in vivo
[24] = AUC in SCID mouse at 50 mg/kg, po; type: ADME, organism-based; conditions: in vivo
[25] = Aqueous solubility in pH 7.4 phosphate buffer; type: physicochemical
OCI-Ly10 [26] = assay: Antitumor activity against human OCI-LY10 cells xenografted in CB.17 SCID mouse assessed as inhibition of tumor growth at 50 mg/kg, po QD dosed 34 days after tumor cell inoculation; type: functional, organism-based
OCI-Ly10 [27] = assay: Antitumor activity against human OCI-LY10 cells xenografted in CB.17 SCID mouse assessed as induction of tumor regression at 50 mg/kg, po QD dosed 34 days after tumor cell inoculation and co-treated with 12 mg/kg, po QD ibrutinib; type: functional, organism-based
[28] = target: T3, Interleukin-1 receptor-associated kinase 4 (Homo sapiens, UniProt Q9NWZ3); assay: Inhibition of IRAK4 (unknown origin) in presence of 5 mM ATP by enzymatic assay
T3 sequence (Q9NWZ3 whole entry): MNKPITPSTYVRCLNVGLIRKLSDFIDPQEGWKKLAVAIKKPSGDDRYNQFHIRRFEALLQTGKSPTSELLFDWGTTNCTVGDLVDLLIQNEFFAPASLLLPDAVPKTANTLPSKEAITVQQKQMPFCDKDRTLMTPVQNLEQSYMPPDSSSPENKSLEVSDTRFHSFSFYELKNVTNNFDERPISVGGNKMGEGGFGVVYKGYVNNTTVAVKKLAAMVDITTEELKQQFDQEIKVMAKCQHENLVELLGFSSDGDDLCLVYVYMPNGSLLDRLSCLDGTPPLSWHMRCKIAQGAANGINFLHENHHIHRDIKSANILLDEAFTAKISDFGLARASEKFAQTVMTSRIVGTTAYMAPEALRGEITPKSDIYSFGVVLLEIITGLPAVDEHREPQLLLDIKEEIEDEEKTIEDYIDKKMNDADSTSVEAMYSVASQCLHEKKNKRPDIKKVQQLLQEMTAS

[29] = target: T3, Interleukin-1 receptor-associated kinase 4; assay: Inhibition of IRAK4 (unknown origin) by cell based assay
OCI-Ly10 [30] = assay: Growth inhibition of human OCI-LY10 cells at 0.3 nM incubated for 3 days by Alamar blue dye based fluorescence assay (reference value: 3%); type: functional; conditions: OCI-Ly10, 72 h, read-out: GI
OCI-Ly10 [31] = assay: Growth inhibition of human OCI-LY10 cells at 2.1 nM incubated for 3 days by Alamar blue dye based fluorescence assay (reference value: 3%); type: functional; conditions: OCI-Ly10, 72 h, read-out: GI
OCI-Ly10 [32] = assay: Growth inhibition of human OCI-LY10 cells at 4.2 nM incubated for 3 days by Alamar blue dye based fluorescence assay (reference value: 3%); type: functional; conditions: OCI-Ly10, 72 h, read-out: GI
OCI-Ly10 [33] = assay: Growth inhibition of human OCI-LY10 cells at 10 nM incubated for 3 days by Alamar blue dye based fluorescence assay (reference value: 3%); type: functional; conditions: OCI-Ly10, 72 h, read-out: GI
OCI-Ly10 [34] = assay: Growth inhibition of human OCI-LY10 cells at 42 nM incubated for 3 days by Alamar blue dye based fluorescence assay (reference value: 3%); type: functional; conditions: OCI-Ly10, 72 h, read-out: GI
OCI-LY19 [35] = assay: Growth inhibition of human OCI-LY19 cells at 0.3 nM incubated for 3 days by Alamar blue dye based fluorescence assay (reference value: 3%); type: functional; conditions: OCI-LY19, 72 h, read-out: GI
OCI-LY19 [36] = assay: Growth inhibition of human OCI-LY19 cells at 2.1 nM incubated for 3 days by Alamar blue dye based fluorescence assay (reference value: 3%); type: functional; conditions: OCI-LY19, 72 h, read-out: GI
OCI-LY19 [37] = assay: Growth inhibition of human OCI-LY19 cells at 4.2 nM incubated for 3 days by Alamar blue dye based fluorescence assay (reference value: 3%); type: functional; conditions: OCI-LY19, 72 h, read-out: GI
OCI-LY19 [38] = assay: Growth inhibition of human OCI-LY19 cells at 10 nM incubated for 3 days by Alamar blue dye based fluorescence assay (reference value: 3%); type: functional; conditions: OCI-LY19, 72 h, read-out: GI
OCI-LY19 [39] = assay: Growth inhibition of human OCI-LY19 cells at 42 nM incubated for 3 days by Alamar blue dye based fluorescence assay (reference value: 3%); type: functional; conditions: OCI-LY19, 72 h, read-out: GI
OCI-Ly10 [40] = assay: Antitumor activity against human OCI-LY10 cells xenografted in CB.17 SCID mouse assessed as induction of tumor stasis at 12 mg/kg, po QD dosed 34 days after tumor cell inoculation; type: functional, organism-based
[41] = Efflux ratio in human Caco2 cells; type: ADME, cell-based; conditions: Caco-2

T1 sequence (P50750 whole entry): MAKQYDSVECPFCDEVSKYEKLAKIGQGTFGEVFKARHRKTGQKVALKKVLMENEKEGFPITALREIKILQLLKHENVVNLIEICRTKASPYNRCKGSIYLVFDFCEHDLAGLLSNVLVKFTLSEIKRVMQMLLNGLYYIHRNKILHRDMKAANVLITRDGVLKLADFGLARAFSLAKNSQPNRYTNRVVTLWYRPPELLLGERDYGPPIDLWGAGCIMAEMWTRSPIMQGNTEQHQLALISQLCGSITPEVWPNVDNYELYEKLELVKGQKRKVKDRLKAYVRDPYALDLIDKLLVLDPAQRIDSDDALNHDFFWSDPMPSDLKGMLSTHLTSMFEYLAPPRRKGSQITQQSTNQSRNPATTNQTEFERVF
Chain of Mitogen-activated protein kinase kinase kinase 9 (Homo sapiens) (P80192 whole entry, looked up): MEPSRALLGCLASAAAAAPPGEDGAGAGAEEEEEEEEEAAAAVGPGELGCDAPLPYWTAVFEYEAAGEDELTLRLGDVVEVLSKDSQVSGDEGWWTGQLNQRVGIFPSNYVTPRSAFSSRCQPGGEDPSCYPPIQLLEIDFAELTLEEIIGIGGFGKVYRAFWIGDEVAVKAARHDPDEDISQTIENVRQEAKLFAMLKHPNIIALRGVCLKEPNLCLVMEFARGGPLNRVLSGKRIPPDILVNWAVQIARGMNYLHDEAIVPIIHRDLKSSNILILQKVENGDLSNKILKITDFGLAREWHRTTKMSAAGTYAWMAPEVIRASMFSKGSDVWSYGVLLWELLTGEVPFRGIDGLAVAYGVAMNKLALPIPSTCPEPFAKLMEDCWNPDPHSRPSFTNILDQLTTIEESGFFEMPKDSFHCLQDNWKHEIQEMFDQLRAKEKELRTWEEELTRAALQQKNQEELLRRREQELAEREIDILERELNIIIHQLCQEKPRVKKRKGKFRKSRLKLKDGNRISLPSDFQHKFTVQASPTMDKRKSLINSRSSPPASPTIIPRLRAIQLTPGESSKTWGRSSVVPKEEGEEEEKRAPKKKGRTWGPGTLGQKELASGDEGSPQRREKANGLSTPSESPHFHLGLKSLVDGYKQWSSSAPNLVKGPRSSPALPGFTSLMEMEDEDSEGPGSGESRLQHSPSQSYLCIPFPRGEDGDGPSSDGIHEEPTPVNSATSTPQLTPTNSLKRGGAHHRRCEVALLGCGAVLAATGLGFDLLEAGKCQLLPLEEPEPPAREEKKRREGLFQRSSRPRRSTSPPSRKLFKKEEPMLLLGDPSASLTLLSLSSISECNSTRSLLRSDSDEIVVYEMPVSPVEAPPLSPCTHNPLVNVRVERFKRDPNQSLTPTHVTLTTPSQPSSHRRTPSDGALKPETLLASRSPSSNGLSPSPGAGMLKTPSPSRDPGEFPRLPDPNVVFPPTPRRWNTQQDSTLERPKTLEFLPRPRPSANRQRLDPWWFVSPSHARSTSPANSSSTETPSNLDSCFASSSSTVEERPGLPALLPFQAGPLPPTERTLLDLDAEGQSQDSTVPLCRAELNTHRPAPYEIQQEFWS
Chain of Dual specificity protein kinase CLK1 (P49759 whole entry): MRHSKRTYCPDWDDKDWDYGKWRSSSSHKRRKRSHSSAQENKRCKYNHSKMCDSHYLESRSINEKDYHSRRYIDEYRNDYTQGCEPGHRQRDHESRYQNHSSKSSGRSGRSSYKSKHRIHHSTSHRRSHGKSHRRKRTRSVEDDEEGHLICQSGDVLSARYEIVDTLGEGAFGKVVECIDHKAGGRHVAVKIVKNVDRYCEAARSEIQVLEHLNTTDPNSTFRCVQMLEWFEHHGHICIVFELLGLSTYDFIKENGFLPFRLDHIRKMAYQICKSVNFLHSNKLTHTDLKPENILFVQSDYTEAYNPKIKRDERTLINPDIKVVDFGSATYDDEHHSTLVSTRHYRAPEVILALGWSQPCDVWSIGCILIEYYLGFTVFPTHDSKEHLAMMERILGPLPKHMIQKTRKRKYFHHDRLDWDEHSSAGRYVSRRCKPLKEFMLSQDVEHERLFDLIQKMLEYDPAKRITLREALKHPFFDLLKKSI
Chain of CDK8/Cyclin C (P49336 whole entry): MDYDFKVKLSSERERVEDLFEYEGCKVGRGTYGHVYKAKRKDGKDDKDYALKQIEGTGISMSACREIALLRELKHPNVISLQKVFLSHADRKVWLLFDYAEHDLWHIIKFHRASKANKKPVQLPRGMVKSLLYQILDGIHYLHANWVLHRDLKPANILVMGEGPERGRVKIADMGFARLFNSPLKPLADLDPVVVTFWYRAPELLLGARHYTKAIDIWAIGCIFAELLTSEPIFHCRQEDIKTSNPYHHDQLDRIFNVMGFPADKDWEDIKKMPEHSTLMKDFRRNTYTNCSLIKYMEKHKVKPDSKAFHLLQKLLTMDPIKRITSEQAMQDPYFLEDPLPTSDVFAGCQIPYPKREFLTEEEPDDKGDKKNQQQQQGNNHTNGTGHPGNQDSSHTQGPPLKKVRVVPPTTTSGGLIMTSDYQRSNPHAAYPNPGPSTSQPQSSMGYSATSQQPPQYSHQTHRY
Chain of CDK8/Cyclin C (P24863 whole entry, further chain): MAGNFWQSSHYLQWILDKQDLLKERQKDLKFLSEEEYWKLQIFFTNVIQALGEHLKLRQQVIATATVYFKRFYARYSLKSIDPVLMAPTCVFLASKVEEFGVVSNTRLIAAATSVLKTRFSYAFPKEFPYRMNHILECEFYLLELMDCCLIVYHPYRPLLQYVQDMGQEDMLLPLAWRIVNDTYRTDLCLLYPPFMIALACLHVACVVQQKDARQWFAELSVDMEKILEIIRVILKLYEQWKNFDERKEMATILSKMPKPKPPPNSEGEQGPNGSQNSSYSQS
Chain of Dual specificity protein kinase CLK4 (Q9HAZ1 whole entry): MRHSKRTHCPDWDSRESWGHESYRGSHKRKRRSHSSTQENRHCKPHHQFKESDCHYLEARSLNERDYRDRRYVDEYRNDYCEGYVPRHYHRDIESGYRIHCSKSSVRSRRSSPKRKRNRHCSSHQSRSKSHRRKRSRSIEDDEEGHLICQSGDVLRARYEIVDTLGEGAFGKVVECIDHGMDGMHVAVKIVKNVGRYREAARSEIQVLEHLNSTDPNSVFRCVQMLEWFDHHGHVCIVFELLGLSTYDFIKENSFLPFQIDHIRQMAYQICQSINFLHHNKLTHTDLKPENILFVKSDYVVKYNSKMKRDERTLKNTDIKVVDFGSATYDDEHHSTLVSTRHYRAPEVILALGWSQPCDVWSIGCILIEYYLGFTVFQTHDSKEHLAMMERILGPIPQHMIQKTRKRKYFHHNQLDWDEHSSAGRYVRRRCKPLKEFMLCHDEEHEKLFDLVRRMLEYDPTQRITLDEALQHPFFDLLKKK
Chain of Cyclin-dependent kinase 7 (P50613 whole entry): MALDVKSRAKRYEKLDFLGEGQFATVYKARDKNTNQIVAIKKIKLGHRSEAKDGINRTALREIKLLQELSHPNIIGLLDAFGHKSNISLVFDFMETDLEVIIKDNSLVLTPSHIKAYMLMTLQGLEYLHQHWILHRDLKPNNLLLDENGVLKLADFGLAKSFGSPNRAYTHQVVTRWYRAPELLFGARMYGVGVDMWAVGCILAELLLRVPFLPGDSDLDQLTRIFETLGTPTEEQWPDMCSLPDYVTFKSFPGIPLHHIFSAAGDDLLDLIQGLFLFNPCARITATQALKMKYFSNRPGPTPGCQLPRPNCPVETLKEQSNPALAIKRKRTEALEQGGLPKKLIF
Chain of Interleukin-1 receptor-associated kinase 1 (P51617 whole entry): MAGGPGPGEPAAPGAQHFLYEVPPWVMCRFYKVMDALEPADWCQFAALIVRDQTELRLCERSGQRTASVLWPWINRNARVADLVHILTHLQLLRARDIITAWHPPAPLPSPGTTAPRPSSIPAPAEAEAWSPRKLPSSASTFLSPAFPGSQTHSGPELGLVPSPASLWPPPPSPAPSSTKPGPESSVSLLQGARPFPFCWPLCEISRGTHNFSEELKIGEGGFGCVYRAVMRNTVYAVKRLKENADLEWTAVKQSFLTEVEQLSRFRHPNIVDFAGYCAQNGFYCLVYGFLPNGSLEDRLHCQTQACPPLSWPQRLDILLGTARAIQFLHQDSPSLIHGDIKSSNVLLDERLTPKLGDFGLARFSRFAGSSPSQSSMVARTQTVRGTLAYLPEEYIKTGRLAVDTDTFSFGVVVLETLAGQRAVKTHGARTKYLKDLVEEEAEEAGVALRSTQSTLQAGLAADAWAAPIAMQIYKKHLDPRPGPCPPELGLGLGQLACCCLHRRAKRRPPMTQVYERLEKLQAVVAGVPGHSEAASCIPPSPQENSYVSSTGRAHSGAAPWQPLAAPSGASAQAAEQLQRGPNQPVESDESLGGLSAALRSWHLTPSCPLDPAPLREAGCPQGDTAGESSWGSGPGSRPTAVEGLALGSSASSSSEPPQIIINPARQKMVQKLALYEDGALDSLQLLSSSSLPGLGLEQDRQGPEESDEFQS
Chain of Casein kinase I isoform gamma-1 (Homo sapiens) (Q9HCP0 whole entry, looked up, canonical isoform): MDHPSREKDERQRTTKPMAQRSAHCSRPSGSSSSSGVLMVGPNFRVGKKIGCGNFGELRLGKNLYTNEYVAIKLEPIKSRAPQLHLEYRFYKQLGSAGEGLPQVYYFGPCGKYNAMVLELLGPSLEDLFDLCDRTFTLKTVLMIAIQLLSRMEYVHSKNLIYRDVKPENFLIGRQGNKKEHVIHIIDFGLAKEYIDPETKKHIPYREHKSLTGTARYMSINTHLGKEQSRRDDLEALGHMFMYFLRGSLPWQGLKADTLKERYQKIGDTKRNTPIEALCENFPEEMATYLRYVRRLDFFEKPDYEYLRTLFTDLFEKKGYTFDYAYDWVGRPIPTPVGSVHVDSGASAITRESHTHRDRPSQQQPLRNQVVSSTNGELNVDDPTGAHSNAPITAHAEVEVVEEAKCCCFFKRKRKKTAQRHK

COC(=O)N1CCN([C@H]2CC[C@H](Nc3ncnc4ccc(C#N)cc34)CC2)CC1
logD [1]: 2.2
hepatocyte CLint [2]: < 1 µL/min/1e6 cells
hepatocyte CLint [3]: < 1.6 µL/min/1e6 cells
Papp [4]: 20 ×10⁻⁶ cm/s
clearance [5]: 7.4 mL/min/kg
bioavailability [6]: > 100%
inhibition [7]: 84%
inhibition [8]: 58%
inhibition [9]: 53%
inhibition [10]: 51%
IC50 [11]: 0.044 µM
IC50 [12]: 1.7 µM
IC50 [13]: 0.36 µM
IC50 [14]: > 10 µM
IC50 [15]: 0.61 µM
IC50 [16]: 3.1 µM
IC50 (CDK8/Cyclin C): 0.068 µM
IC50 [17]: 0.37 µM
fraction unbound [18]: 0.05
fraction unbound [19]: 0.28
fraction unbound [20]: 0.23
clearance [21]: 7.4 mL/min/kg
Vd [22]: 1.3 L/kg
bioavailability [23]: > 100%
AUC [24]: 390 µM·h
solubility [25]: 130 µM (≈ 51.3 µg/mL)
TGI (OCI-Ly10 [26]): Active
Activity (OCI-Ly10 [27]): Active

COC(=O)N1CCN([C@H]2CC[C@H](Nc3nc(Nc4cnn(C)c4)nc4ccc(C5(C#N)CC5)nc34)CC2)CC1
IC50 [28]: 0.017 µM
IC50 [29]: 0.061 µM
logD [1]: 3.2
hepatocyte CLint [2]: 4 µL/min/1e6 cells
hepatocyte CLint [3]: 7.3 µL/min/1e6 cells

COC(=O)N1CCN([C@H]2CC[C@H](Nc3nc(Nc4cnn(C)c4)nc4ccc(C#N)nc34)CC2)CC1
IC50 [28]: 0.005 µM
IC50 [29]: 0.048 µM
logD [1]: 2.7
hepatocyte CLint [3]: 2.6 µL/min/1e6 cells

COC(=O)N1CCN([C@H]2CC[C@H](Nc3nc(Nc4cnn(C)c4)nc4ccc(C(C)(C)C#N)nc34)CC2)CC1
IC50 [28]: 0.069 µM
IC50 [29]: 1.6 µM
logD [1]: 3
hepatocyte CLint [3]: 18 µL/min/1e6 cells

C=CC(=O)N1CCC[C@@H](n2nc(-c3ccc(Oc4ccccc4)cc3)c3c(N)ncnc32)C1 [IBRUTINIB]
inhibition of growth at 0.0003 µM (OCI-Ly10 [30]): 5%
inhibition of growth at 0.0021 µM (OCI-Ly10 [31]): 36%
inhibition of growth at 0.0042 µM (OCI-Ly10 [32]): 60%
inhibition of growth at 0.01 µM (OCI-Ly10 [33]): 83%
inhibition of growth at 0.042 µM (OCI-Ly10 [34]): 93%
inhibition of growth at 0.0003 µM (OCI-LY19 [35]): 3%
inhibition of growth at 0.0021 µM (OCI-LY19 [36]): 7%
inhibition of growth at 0.0042 µM (OCI-LY19 [37]): 6%
inhibition of growth at 0.01 µM (OCI-LY19 [38]): 7%
inhibition of growth at 0.042 µM (OCI-LY19 [39]): 11%
Activity (OCI-Ly10 [40]): Active

COC(=O)N1CCN([C@H]2CC[C@H](Nc3nc(Nc4cnn(C)c4)nc4ccc(C#N)cc34)CC2)CC1
IC50 [28]: 0.001 µM
IC50 [29]: 0.034 µM
logD [1]: 3.2
hepatocyte CLint [2]: < 1 µL/min/1e6 cells
hepatocyte CLint [3]: 5.4 µL/min/1e6 cells
Papp [4]: 3 ×10⁻⁶ cm/s
efflux ratio [41]: 46
clearance [5]: 11 mL/min/kg
bioavailability [6]: 10%

N#Cc1ccc2ncnc(N[C@H]3CC[C@H](N4CCOCC4)CC3)c2c1
IC50 [28]: 0.046 µM
IC50 [29]: 0.25 µM
logD [1]: 1.6
hepatocyte CLint [2]: < 1.2 µL/min/1e6 cells
hepatocyte CLint [3]: 3.4 µL/min/1e6 cells
Papp [4]: 18 ×10⁻⁶ cm/s
efflux ratio [41]: 1.6
clearance [5]: 20 mL/min/kg
bioavailability [6]: 29%
